In one experiment the test system is MMP9. As to the kind of experiment: ELISA, MMP9 concentration. It counts as cell-based, human. On the procedure:
(§1) The concentrations of matrix metalloproteinase-2 (MMP2), matrix metalloproteinase-9 (MMP9), Bcl2, BAX, P53, Malondialdehyde (MDA), Glutathione (GSH), caspase 8, caspase 9 and IL-6 were measured quantitatively in 5c treated MCF7 and HEP2 cells using ELISA (Enzyme-Linked Immunosorbent Assay) (Table 4). Gelatinases are a collective word for MMP-2 and MMP-9, where MMP-2 is gelatinase-A and MMP-9 is gelatinase-B. Solid tumor invasion, metastasis, and angiogenesis have long been linked to gelatinases (Das et al. [2021]). […] Bcl2 is a crucial protein that targets apoptosis inhibition. It is regarded as a predictive biomarker or therapeutic target in the diagnosis of cancer due to its broad expression in a variety of cancers (Porter et al. [2009]). […] The pro-apoptotic protein BAX permeabilizes the mitochondrial outer membrane by changing from a cytosolic monomer to a hazardous oligomer triggering the apoptosis process (Fulda and Debatin [2006]). […] P53 transcription factor performs an essential tumor suppressor role by coordinating a wide range of physiological responses, including DNA repair, cell cycle arrest, cellular senescence, cell death, cell differentiation, and metabolism (Liebl and Hofmann [2021]). It was activated in MCF7 and HEP2-treated cells with values (4.28 and 3.109 ng/mL), respectively, compared to their controls (3.44 and 2.06 ng/mL). […]
Background: An ELISA detects its analyte on a solid surface through an enzyme-linked reagent.

The test system of experiment [1] is human colorectal carcinoma (HCT116) cells. The experiment can be described thus: SRB cytotoxic assay, HCT116. Conditions: HCT-116, single dose 100 µg/mL, 48 h, read-out: %Inhibition at100 µg/mL HCT116. Type of experiment: cell-based. On the procedure: (§2) All the prepared compounds were screened at a concentration of 100 µg/mL against six different human cell lines: human laryngeal carcinoma (HEP2), human colorectal carcinoma (HCT116), human breast carcinoma (MCF7), human Lung carcinoma (A549), human liver carcinoma (HEPG2), and normal African Green monkey kidney cell line (VERO). Doxorubicin was used as a positive control for comparison purposes.
(§3) The human laryngeal carcinoma (HEP2), colorectal carcinoma (HCT116), breast carcinoma (MCF7), Lung carcinoma (A549), liver carcinoma (HEPG2), and normal African Green monkey kidney cell line (VERO) were purchased from American Tissue Culture Collection (Rockville, MD, USA). The cells were treated for 48 h with a single dose (100 µg/mL) of all the tested chalcones. […] In brief, the cells were seeded in a 96-well microtiter plate at a concentration of 5×10^3 cells/well in 100 µL fresh RPMI-1640 medium and left to attach to the plates for 24 h. Then, cells were incubated with 100 μL of different concentrations (50, 25, 12.5, 6.25, and 0.0 µg/mL) of 5c in triplicate at 37 °C for 48 h. After that, the cells were fixed with 10 µL cold 100% Trichloroacetic acid (TCA) for 1h at 4 °C. The wells were then washed 1 time with distilled water using (automatic Tecan washer, Germany) and stained for 30 min at room temperature with 50 µL 0.4% SRB dissolved in 1% acetic acid. The plates were air-dried and the dye was solubilized with 100 µl/well of 1M tris base (pH 10.5) for 5 min. The optical density (O.D.) of each well was measured spectrophotometrically at 570 nm with an ELISA microplate reader (Sunrise Tecan reader, Germany) with automatic shaking for 30 seconds before reading. The mean background absorbance was subtracted automatically and mean values for each drug concentration were calculated. The percentage of cell survival was calculated as follows: Survival fraction= O.D. (treated cells)/ O.D. (control cells) (Bhat et al. [2023]).
On the technique in general: Sulforhodamine B stains cellular protein and so reports cell mass.

Another experiment concerns IL-6. As to the kind of experiment: ELISA, IL-6 concentration. Type of experiment: cell-based, human. Here is the method:
as §1

Experiment [2] relates to normal African Green monkey kidney cell line (VERO). As to the kind of experiment: SRB cytotoxic assay, VERO normal cells. Type of experiment: cell-based. Conditions: Chlorocebus sabaeus, single dose 100 µg/mL, 48 h, read-out: %Inhibition at100 µg/mL VERO. Here is the method:
as §2, §3

Experiment [3] relates to human liver carcinoma (HEPG2) cells. As to the kind of experiment: SRB cytotoxic assay, HEPG2. It counts as cell-based. Particulars: single dose 100 µg/mL, 48 h, read-out: %Inhibition at100 µg/mL HEPG2. On the procedure:
as §2, §3

Experiment [4] relates to human breast carcinoma (MCF7) cells. As to the kind of experiment: SRB cytotoxic assay, MCF7. It counts as cell-based. Conditions: MCF7, 48 h. On the procedure: as §2, §3

Converted amounts (≈) assume the structure as drawn. “And” between values parts separate entries of the source, which are not always exact repeats. Equal values may be shown once.

On to `COc1ccc(NC(=O)COc2ccc(C=CC(=O)c3cccs3)cc2)cc1` [Compound 5c, N-(4-Methoxyphenyl)-2-(4-(3-oxo-3-(thiophen-2-yl)prop-1-en-1-yl)phenoxy)acetamide], for which the MMP9 concentration is 236.5 ng/mL and 236.5 ± 24.87 ng/mL in the experiment with MMP9 (5c treated HEP2 cells, untreated 564.8±41.45); 271.6 ng/mL and 271.6 ± 58.04 ng/mL in the experiment on MMP9 (5c treated MCF7 cells, untreated 588.28±24.87). The inhibition at 100 µg/mL in experiment [1] is 41.9 ± 1.8%; in experiment [2] it was 58 ± 1.5%; in experiment [3], 67 ± 1.6%; in experiment [4] (single dose 100 µg/mL, read-out: %Inhibition at100 µg/mL MCF7), over 75%. For the same molecule, the IL-6 concentration was 54.27 pg/mL and 54.27 ± 5.509 pg/mL with IL-6 (5c treated HEP2 cells, untreated 85.24±1.16); 74.68 pg/mL and 74.68 ± 0.979 pg/mL in the experiment with IL-6 (5c treated MCF7 cells, untreated 100.47±0.439). In addition, the half-inhibitory concentration (IC50) (in general, the concentration that gives 50% inhibition) in experiment [4] was determined as 9.5 µg/mL (≈ 24.1 µM).

The values above are taken from publication PMC11582173, “Synthesis, cytotoxicity, anti-inflammatory, anti-metastatic and anti-oxidant activities of novel chalcones incorporating 2-phenoxy-N-arylacetamide and thiophene moieties: induction of apoptosis in MCF7 and HEP2 cells” (Naunyn-Schmiedeberg's Archives of Pharmacology, 2024).
